Measured values taken from the NIST ThermoML archive (doi:10.1021/je800330d).

Columns and labels:
[1] = mn = molality of the nth substance listed, in mol/kg; settings: 101 kPa, Liquid, Capillary tube (Ostwald / Ubbelohde) method
[2] = xn = mol fraction of the nth substance listed; settings: 101 kPa, Liquid, Capillary tube (Ostwald / Ubbelohde) method
[3] = 101 kPa, Liquid, Capillary tube (Ostwald / Ubbelohde) method

O=S(=O)([O-])[O-].O=S(=O)([O-])[O-].O=S(=O)([O-])[O-].[Al+3].[Al+3] [aluminum sulfate] + O
viscosity [mPa·s], [1]
Settings | m1 = 0.0081 | m1 = 0.0099 | m1 = 0.0201 | m1 = 0.0402 | m1 = 0.0599 | m1 = 0.0802 | m1 = 0.1
298.15 K | 0.904 | 0.908 | 0.927 | 0.967 | 1.008 | 1.05 | 1.093
308.15 K | 0.729 | 0.732 | 0.747 | 0.777 | 0.807 | 0.839 | 0.87

N.N.O=S(=O)(O)O [ammonium sulfate] + O
viscosity [mPa·s], [1]
Settings | m1 = 0.0081 | m1 = 0.0099 | m1 = 0.0201 | m1 = 0.0402 | m1 = 0.0599 | m1 = 0.0802 | m1 = 0.1
298.15 K | 0.897 | 0.898 | 0.902 | 0.908 | 0.913 | 0.918 | 0.922
308.15 K | 0.725 | 0.726 | 0.729 | 0.735 | 0.74 | 0.744 | 0.748

CN(C)C=O [dimethylformamide] + O
viscosity [mPa·s], [2]
Settings | x1 = 0.05 | x1 = 0.1 | x1 = 0.15 | x1 = 0.2
298.15 K | 1.002 | 1.126 | 1.258 | 1.391
308.15 K | 0.797 | 0.891 | 0.984 | 1.08

O=S(=O)([O-])[O-].[K+].[K+] [potassium sulfate] + O
viscosity [mPa·s], [1]
Settings | m1 = 0.0081 | m1 = 0.0099 | m1 = 0.0201 | m1 = 0.0402 | m1 = 0.0599 | m1 = 0.0802 | m1 = 0.1
298.15 K | 0.895 | 0.896 | 0.899 | 0.905 | 0.909 | 0.914 | 0.918
308.15 K | 0.723 | 0.724 | 0.727 | 0.732 | 0.737 | 0.742 | 0.746

O [water]
[3]
Settings | viscosity [mPa·s]
298.15 K | 0.89
308.15 K | 0.719
